Measured values: US8431703B2, “Pyrrolopyridine compounds and their use in treating disease” (Novartis AG, priority 2005, dated 2013)

Key:
human CRTh2 [1] = target: T1, human CRTh2 (Homo sapiens, UniProt Q9Y5Y4); assay: CRTH2 cAMP functional assay in CHO.K1-CRTh2 cells; type: cell-based; design: expressed in transfected cells; host or cells: CHO.K1-CRTh2 cells; conditions: inhibition of PGD2-mediated attenuation of forskolin-induced cAMP accumulation
T1 sequence (Q9Y5Y4 1-395): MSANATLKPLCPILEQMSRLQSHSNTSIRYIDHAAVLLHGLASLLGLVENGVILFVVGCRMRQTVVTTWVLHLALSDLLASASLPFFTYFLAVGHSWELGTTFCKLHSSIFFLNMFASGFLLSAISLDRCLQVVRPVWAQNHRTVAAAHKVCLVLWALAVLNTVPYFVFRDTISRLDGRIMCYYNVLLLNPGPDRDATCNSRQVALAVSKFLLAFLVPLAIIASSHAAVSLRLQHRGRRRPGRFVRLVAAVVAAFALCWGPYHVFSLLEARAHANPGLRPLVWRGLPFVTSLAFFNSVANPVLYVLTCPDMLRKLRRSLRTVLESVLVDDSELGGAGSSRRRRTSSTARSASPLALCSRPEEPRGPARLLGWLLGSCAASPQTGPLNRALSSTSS
Experimental: This assay is conducted in CHO.K1-CRTh2 cells. cAMP is generated in the cell by stimulating cells with 5 μM forskolin, an adenylate cyclase activator. PGD2 is added to activate the CRTh2 receptor which results in the attenuation of the forskolin-induced cAMP accumulation. Potential CRTh2 antagonists are tested for their ability to inhibit the PGD2-mediated attenuation of the forskolin-induced cAMP accumulation in CHO.K1-CRTh2 cells.
For each concentration value on the dose-response curve, test compounds are prepared in assay stimulation buffer (HBSS, 5 mM HEPES, 10 μM IBMX±0.1% human serum albumin) containing DMSO (3% vol/vol) and 5 μL/well is added to an assay plate (384 well white optiplate).
CHO.K1-CRTh2 cultured in tissue culture flasks are washed with PBS and harvested with dissociation buffer. Cells are washed with PBS and resuspended in stimulation buffer to a concentration of 0.4×10^6/mL and added to the assay plate (10 μL/well).
The assay plate is incubated at room temperature on a shaker for 15 minutes.
A mix of agonist (10 nM Prostaglandin D2) and 5 μM forskolin is prepared in assay stimulation buffer and added to the assay plate (5 μL/well).
In addition, a cAMP standard is serially diluted in assay stimulation buffer and added to separate empty wells on the assay plate (20 μL/well). The cAMP standard allows for the quantification of cAMP generated in CHO.K1-CRTH2 cells.
The assay plate is incubated at room temperature on a shaker for 60 minutes.
Cell lysis buffer (Lysis buffer: Milli-Q H20, 5 mM HEPES, 0.3% Tween-20, 0.1% human serum albumin) is added to a bead mix (containing Alphascreen™ anti-cAMP acceptor beads 0.06 units/IL, Alphascreen™ streptavidin-coated donor beads 0.06 units/μL, biotinylated cAMP 0.06 units/μL, 10 μM IBMX) is prepared under darkened conditions 60 minutes prior to addition to the assay plate. The resulting lysis mix is added to all wells of the assay plate (40 μL/well).
The assay plate is sealed with Topseal-S™ and incubated in the dark at room temperature on a shaker for 45 minutes. The plate is then counted using a Packard Fusion™ instrument.
The resulting counts per minute are converted to nM cAMP by using the prepared cAMP standard curve. IC50 values (concentration of CRTh2 antagonist required to inhibit 50% of the PGD2-mediated attenuation of forskolin-induced cAMP accumulation in CHO.K1-CRTh2 cells) are then determined using Prism™ software.

human CRTh2 [2] = target: T1, human CRTh2; assay: CRTh2 [3H]-PGD2 binding assay (filtration binding protocol; called SPA binding assay); design: expressed in transfected cells; host or cells: CHO.K1 (Chinese Hamster Ovary) cells, membrane preparation; conditions: competition with [3H]-PGD2 2.5 nM, CHO.K1-CRTh2 membranes
Experimental: The binding of CRTh2 modulators is determined using membranes prepared from human CRTh2-expressing Chinese Hamster Ovary cells (CHO.K1-CRTh2). To produce cell membranes CHO.K1-CRTh2 cells cultured in roller bottles are harvested using cell dissociation buffer (Invitrogen). The cells are pelleted by centrifugation (167 g, 5 min). The cell pellet is incubated in hypotonic buffer (15 mM Tris-OH, 2 mM MgCl2, 0.3 mM EDTA, 1 mM EGTA, 1× Complete™ tablet) at 4° C. for 30 min. At 4° C. cells are homogenized using a Polytron® (IKA Ultra Turrax T25) for 5 bursts of 1 second. The homogenate is centrifuged (Beckman Optima™ TL Ultracentrifuge, 48000 g, 30 min at 4° C.). The supernatant is discarded and the membrane pellet resuspended in homogenisation buffer (75 mM Tris-OH, 12.5 mM MgCl2, 0.3 mM EDTA, 1 mM EGTA, 250 mM Sucrose, 1× Complete™ tablet. Membrane preparations are aliquoted and stored at […]. The protein content is estimated using Bradford Protein Assay Dye (Bio Rad).
The binding of [^3H]-PGD2 (157 Ci/mmol) to CHO.K1-CRTh2 membranes is determined in the absence (total binding) and presence (non-specific binding) of unlabelled PGD2 (1 μM). Subtraction of the cpm (counts per minute) of [^3H]-PGD2 binding in presence of excess unlabelled PGD2 from that observed in the absence of excess unlabelled PGD2 is defined as specific binding. Active CRTh2 modulators are able to compete with [^3H]-PGD2 for binding to the CRTh2 receptor and are identified in a decrease in the number of cpm bound.
The assay is performed in Greiner U-bottomed 96 well-plates, in a final volume of 100 μl per well. CHO.K1-CRTh2 membranes were diluted in assay buffer (10 mM HEPES-KOH (pH 7.4), 1 mM EDTA and 10 mM MnCl2) and 10 μg are added to each well. [^3H]-PGD2 is diluted in assay buffer and added to each well at a final concentration of 2.5 nM. To determine non-specific binding, [^3H]-PGD2 binding to the CRTh2 receptor is competed with using unlabelled PGD2 at a final well concentration of 1 μM. The experiment is done in triplicate, with reagents added to the wells as follows: • 25 μL assay buffer for total binding or • 25 μL PGD2 to determine non-specific binding • 25 μL [^3H]PGD2 • 50 μL membranes • 25 μL test compound in DMSO/assay buffer
The plates are incubated at room temperature on a shaker for 1 hour, and then harvested (Tomtec Harvester 9600) onto GF/C filter plates using wash buffer (10 mM HEPES-KOH, pH 7.4). […] Plates are then counted using a Packard Top Count instrument, Plates are then read on the Packard Topcount with the 3H Scintillation program (1 min per well). • Ki (dissocation constant for the inhibition) values for the CRTh2 modulators are reported. Ki values are determined using Sigma Plot™ software, using the Cheng-Prussoff equation. […]

SMILES | IC50 (human CRTh2 [1]) [nM] | Ki (human CRTh2 [2]) [nM]
Cc1c(CC(=O)O)c2cccnc2n1Cc1ccc(S(=O)(=O)N2CCOCC2)cc1 [Example 1, {2-methyl-1-[4-(morpholine-4-sulfonyl)-benzyl]-1H-pyrrolo[2,3-b]pyridine-3-yl}acetic acid] | 60 | 30
Cc1c(CC(=O)O)c2cccnc2n1Cc1ccc(S(=O)(=O)N2CCCC2)cc1 [Example 2] | 83 | 34
Cc1c(CC(=O)O)c2cccnc2n1Cc1ccc(S(=O)(=O)N2CCCCC2)cc1 [Example 4] | 42 | 240
Cc1c(CC(=O)O)c2cccnc2n1Cc1ccc(S(=O)(=O)N(C)C2CCCCC2)cc1 [Example 6, {1-[4-(Cyclohexyl-methyl-sulfamoyl)-benzyl]-2-methyl-1H-pyrrolo[2,3-b]pyridin-3-yl}-acetic acid] | 18 | 2
